The record followed here is ChEMBL document CHEMBL1151490, “Inhibition of farnesyl protein transferase by new farnesyl phosphonate derivatives of phenylalanine” (Bioorg Med Chem Lett, 1996).

For assay [1], the target named is T1, Protein farnesyltransferase (Bos taurus, UniProt P29702+P49355). The experiment in a line: Inhibition of farnesyl protein transferase from bovine brain.
The next assay has as its target T2, Squalene synthase (Rattus norvegicus, UniProt Q02769).
T2 sequence (Q02769 whole entry): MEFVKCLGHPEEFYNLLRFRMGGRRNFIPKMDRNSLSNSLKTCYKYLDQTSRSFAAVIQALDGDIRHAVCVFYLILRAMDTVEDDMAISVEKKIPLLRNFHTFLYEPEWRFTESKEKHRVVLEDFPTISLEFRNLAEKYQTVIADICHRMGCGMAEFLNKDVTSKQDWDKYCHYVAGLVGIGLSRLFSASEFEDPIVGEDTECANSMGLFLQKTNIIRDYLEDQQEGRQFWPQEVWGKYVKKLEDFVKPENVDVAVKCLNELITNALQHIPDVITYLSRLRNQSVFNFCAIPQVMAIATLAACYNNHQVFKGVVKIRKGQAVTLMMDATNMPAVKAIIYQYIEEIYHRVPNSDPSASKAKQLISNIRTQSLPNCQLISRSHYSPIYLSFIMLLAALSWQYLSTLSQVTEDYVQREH
The experiment in a line: Inhibition of squalene synthase from rat liver microsomes. For orientation: Liver microsomes are vesicles of endoplasmic reticulum, rich in cytochrome P450 enzymes.

For assay [2], the target named is T1, Protein farnesyltransferase. The assay is described as follows: Inhibition of Farnesyltransferase from bovine brain.

As a reminder, the IC50 is the midpoint of a concentration-inhibition curve. Regarding `CC(C)=CCC/C(C)=C/CC/C(C)=C/CC(C(=O)O)C(=O)NC(Cc1ccccc1)C(=O)O` (centres undefined), the 50% inhibitory concentration (IC50) in assay [1] amounted to 37000 nM; on Squalene synthase, 2400 nM.

With `CC(C)=CCC/C(C)=C/CC/C(C)=C/CC(CCP(=O)(O)O)C(=O)N[C@@H](Cc1ccccc1)C(=O)O` (some centres undefined), the results for the concentration for half-maximal inhibition (IC50) (in assay [1]; against Squalene synthase) were 10000 nM and 4200 nM, respectively.

In the case of `CC(C)=CCC/C(C)=C/CC/C(C)=C/C(O)P(=O)(O)O` (centres undefined), the values for the IC50 (in assay [1]; against Squalene synthase) were 410 nM and 2300 nM, respectively.

With `COC(=O)[C@H](Cc1ccccc1)NC(=O)C(C/C=C(\C)CC/C=C(\C)CCC=C(C)C)P(=O)(O)O` (some centres undefined), the values for the IC50 (in assay [1]; on Squalene synthase) were above 100000 nM and 1400 nM, respectively.

As for `CC(C)=CCC/C(C)=C/CC/C(C)=C/CC(C(=O)N[C@@H](Cc1ccccc1)C(=O)O)P(=O)(O)O` (some centres undefined), the 50% inhibitory concentration (IC50) came out at 80 nM in assay [1] and 1300 nM against Squalene synthase.

As for `CC(C)=CCC/C(C)=C/CC/C(C)=C/CC(CP(=O)(O)O)C(=O)N[C@@H](Cc1ccccc1)C(=O)O` (some centres undefined), the 50% inhibitory concentration (IC50) in assay [1] came to 170 nM; on Squalene synthase, 90 nM.

Take `CC(C)=CCC/C(C)=C/CC/C(C)=C/CC(C(=O)NCCc1ccccc1)P(=O)(O)O` (centres undefined): the IC50 in assay [1] was 13000 nM; against Squalene synthase, 480 nM.

With `CC(C)=CCC/C(C)=C/CC/C(C)=C/CC(C(=O)N[C@H](Cc1ccccc1)C(=O)O)P(=O)(O)O` (some centres undefined), the figures for the IC50 (in assay [1]; against Squalene synthase) were 980 nM and 500 nM, respectively.

On to `CC(C)=CCC/C(C)=C/CC/C(C)=C/CC(CC(=O)N[C@@H](Cc1ccccc1)C(=O)O)P(=O)(O)O` (some centres undefined), for which the concentration for half-maximal inhibition (IC50) worked out at 470 nM in assay [1] and 220 nM on Squalene synthase.

Take `CC(C)=CCC/C(C)=C/CCCC(P(=O)(O)O)P(=O)(O)O` [SQ-34919]: inhibition in assay [2] was half-maximal at 80000 nM (IC50). This counts as double-digit micromolar.
